Structures can show the parent of a compound that is named as a salt.

The target in assay [1] is T1, TBK1 (Homo sapiens, UniProt Q9UHD2).
T1 sequence (Q9UHD2 1-729): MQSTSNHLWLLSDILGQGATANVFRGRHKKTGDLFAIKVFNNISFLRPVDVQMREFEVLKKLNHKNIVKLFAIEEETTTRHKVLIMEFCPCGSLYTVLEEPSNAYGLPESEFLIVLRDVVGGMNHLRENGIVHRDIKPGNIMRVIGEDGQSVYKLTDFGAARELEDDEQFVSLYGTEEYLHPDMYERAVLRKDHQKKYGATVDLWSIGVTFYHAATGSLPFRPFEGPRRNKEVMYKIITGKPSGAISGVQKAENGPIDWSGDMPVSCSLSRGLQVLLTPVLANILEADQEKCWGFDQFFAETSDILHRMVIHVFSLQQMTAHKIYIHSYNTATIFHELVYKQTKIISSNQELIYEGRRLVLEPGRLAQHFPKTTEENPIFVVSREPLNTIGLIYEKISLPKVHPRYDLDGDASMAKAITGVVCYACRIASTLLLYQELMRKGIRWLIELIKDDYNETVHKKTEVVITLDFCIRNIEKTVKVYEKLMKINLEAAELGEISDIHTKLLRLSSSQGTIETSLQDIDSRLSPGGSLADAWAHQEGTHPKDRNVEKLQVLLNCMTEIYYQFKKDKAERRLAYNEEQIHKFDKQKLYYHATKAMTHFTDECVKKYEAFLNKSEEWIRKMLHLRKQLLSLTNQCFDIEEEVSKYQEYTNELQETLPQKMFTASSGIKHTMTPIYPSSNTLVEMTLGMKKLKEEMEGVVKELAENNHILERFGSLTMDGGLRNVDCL
Nature of the assay: TBK biochemical assay. Conditions: 10 point 1:4 dose response, 30 uM top concentration, 90 min at 25° C., LabChip EZ Reader II; read-out: TBK1_IC50. In a few lines:
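Substrate and product were separated and quantified by microfluidic mobility-shift read (LabChip). 10 uM staurosporine served as the full-inhibition control, and the reference compound was tested from 1 uM final.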

Assay [2] has as its target T2, IKKε (Homo sapiens, UniProt Q14164).
T2 sequence (Q14164 1-716): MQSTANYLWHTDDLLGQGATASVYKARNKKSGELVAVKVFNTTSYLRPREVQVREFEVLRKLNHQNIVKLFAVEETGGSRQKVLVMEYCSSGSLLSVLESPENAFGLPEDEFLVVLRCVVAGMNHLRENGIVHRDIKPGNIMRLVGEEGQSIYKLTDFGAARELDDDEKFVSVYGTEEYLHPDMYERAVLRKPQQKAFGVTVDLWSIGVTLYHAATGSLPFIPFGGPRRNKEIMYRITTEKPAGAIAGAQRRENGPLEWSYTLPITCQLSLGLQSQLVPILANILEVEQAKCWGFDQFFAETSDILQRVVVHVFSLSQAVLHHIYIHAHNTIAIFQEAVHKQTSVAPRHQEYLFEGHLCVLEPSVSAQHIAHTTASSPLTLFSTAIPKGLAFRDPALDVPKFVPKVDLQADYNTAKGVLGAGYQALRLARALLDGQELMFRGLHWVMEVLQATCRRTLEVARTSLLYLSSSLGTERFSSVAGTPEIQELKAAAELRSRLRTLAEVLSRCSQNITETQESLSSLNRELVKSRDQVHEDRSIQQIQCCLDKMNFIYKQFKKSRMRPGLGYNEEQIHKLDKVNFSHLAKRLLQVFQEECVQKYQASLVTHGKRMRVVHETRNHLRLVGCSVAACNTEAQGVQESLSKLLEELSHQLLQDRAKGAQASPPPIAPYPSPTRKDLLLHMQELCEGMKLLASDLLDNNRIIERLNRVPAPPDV
Description: IKKε biochemical assay. To be noted: 10 point 1:4 dose response, 30 uM top concentration, 90 min at 25° C., LabChip EZ Reader II; read-out: IKKε_IC50. In a few lines: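 Compounds in 1% DMSO final were incubated with IKKε enzyme and substrate at 25° C. for 90 min, then stopped. Substrate and product peaks were resolved by LabChip EZ Reader II mobility-shift read-out. Staurosporine at 10 uM final served as the full-inhibition control.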

For `COc1cc(Nc2nccc(-c3ccc(O[C@@H]4CCN(C(=O)[C@@H](C)O)CC4(F)F)c(C#N)c3)n2)ccn1` [Example 231, 2-((R)-3,3-difluoro-1-((R)-2-hydroxypropanoyl)piperidin-4-yloxy)-5-(2-(2-methoxypyridin-4-ylamino)pyrimidin-4-yl)benzonitrile], the IC50 in assay [1] and in assay [2] was < 0.1 µM each time.
`C[C@H](O)C(=O)N1CC[C@@H](Oc2ccc(-c3ccnc(Nc4ccc(N5CCN(C6COC6)CC5)cc4)n3)cc2C#N)C(F)(F)C1` [Example 140, 2-[[(4R)-3,3-difluoro-1-[(2S)-2-hydroxypropanoyl]piperidin-4-yl]oxy]-5-[2-([4-[4-(oxetan-3-yl)piperazin-1-yl]phenyl]amino)pyrimidin-4-yl]benzonitrile]: the IC50 in assay [1] and in assay [2] was < 0.1 µM throughout.
`COc1nc(Nc2nccc(-c3ccc(OC4CCN(C(=O)C5CCO5)CC4(F)F)c(C#N)c3)n2)ccc1N1CCN(C2COC2)CC1` (stereo not shown) [Example 250, 2-[3,3-Difluoro-1-(oxetane-2-carbonyl)-piperidin-4-yloxy]-5-{2-[6-methoxy-5-(4-oxetan-3-yl-piperazin-1-yl)-pyridin-2-ylamino]-pyrimidin-4-yl}-benzonitrile]: the IC50 in assay [1] and in assay [2] was < 0.1 µM throughout.
Consider `N#Cc1cc(-c2ccnc(Nc3ccc(N4CCN(C5COC5)CC4)cc3)n2)ccc1OC1CCOC1` (stereo not shown) [Example 161, 5-[2-([4-[4-(oxetan-3-yl)piperazin-1-yl]phenyl]amino)pyrimidin-4-yl]-2-(oxolan-3-yloxy)benzonitrile], for which the IC50 in assay [1] and in assay [2] was < 0.1 µM throughout.
With `COc1cccc(Nc2nccc(-c3ccc(OC4CCN(C(=O)[C@@H](O)CO)CC4(F)F)c(C#N)c3)n2)n1` (stereo partly drawn) [Example 242, 2-[1-((S)-2,3-Dihydroxy-propionyl)-3,3-difluoro-piperidin-4-yloxy]-5-[2-(6-methoxy-pyridin-2-ylamino)-pyrimidin-4-yl]-benzonitrile], the IC50 in assay [1] and in assay [2] was < 0.1 µM each time.
With `N#Cc1cc(-c2ccnc(Nc3ccccn3)n2)ccc1OC1CCN(C(=O)CO)CC1(F)F` (stereo not shown) [Example 220, 2-[3,3-Difluoro-1-(2-hydroxy-acetyl)-piperidin-4-yloxy]-5-[2-(pyridin-2-ylamino)-pyrimidin-4-yl]-benzonitrile], the IC50 in assay [1] and in assay [2] was < 0.1 µM each time.
Consider `COc1nc(Nc2nccc(-c3ccc(OC4CCN(C(=O)[C@H](C)O)CC4(F)F)c(C#N)c3)n2)ccc1N1CCN(C)CC1C` (stereo in doubt) [Example 112, 2-[3,3-Difluoro-1-((S)-2-hydroxy-propionyl)-piperidin-4-yloxy]-5-{2-[5-((S)-2,4-dimethyl-piperazin-1-yl)-6-methoxy-pyridin-2-ylamino]-pyrimidin-4-yl}-benzonitrile], for which the IC50 in assay [1] and in assay [2] was < 0.1 µM throughout.
On to `COc1nc(Nc2nccc(-c3ccc(OC4CCN(C(=O)[C@@H](C)O)CC4(F)F)c(C#N)c3)n2)ccc1N1CCN(C)CC1C` (stereo in doubt) [Example 110, 2-[3,3-Difluoro-1-((R)-2-hydroxy-propionyl)-piperidin-4-yloxy]-5-{2-[5-((S)-2,4-dimethyl-piperazin-1-yl)-6-methoxy-pyridin-2-ylamino]-pyrimidin-4-yl}-benzonitrile], for which the IC50 in assay [1] and in assay [2] was < 0.1 µM throughout.
Consider `COc1cc(Nc2nccc(-c3ccc(OC4CCOCC4)c(C#N)c3)n2)ncc1C1CCN(C)CC1` [Example 59, 5-(2-[[4-methoxy-5-(1-methylpiperidin-4-yl)pyridin-2-yl]amino]pyrimidin-4-yl)-2-(oxan-4-yloxy)benzonitrile hydrochloride], for which the IC50 is 0.1 to 1 µM in assay [1] and < 0.1 µM in assay [2].
The like results for `COc1nc(Nc2nccc(-c3ccc(OC4CCN(C(=O)C(C)F)CC4(F)F)c(C#N)c3)n2)ccc1N1CCN(C2COC2)CC1` (stereo not shown) [Example 259, 2-[3,3-Difluoro-1-(2-fluoro-propionyl)-piperidin-4-yloxy]-5-{2-[6-methoxy-5-(4-oxetan-3-yl-piperazin-1-yl)-pyridin-2-ylamino]-pyrimidin-4-yl}-benzonitrile] were, in that order, < 0.1 µM and < 0.1 µM.
For `COc1nc(Nc2nccc(-c3ccc(OC4CCN(C)CC4(F)F)c(C#N)c3)n2)ccc1N1CCN(C)CC1` (stereo not shown) [Example 98, 2-[(3,3-difluoro-1-methylpiperidin-4-yl)oxy]-5-(2-[[6-methoxy-5-(4-methylpiperazin-1-yl)pyridin-2-yl]amino]pyrimidin-4-yl)benzonitrile], the IC50 in assay [1] and in assay [2] was < 0.1 µM in each case.
For the compound `COc1nc(Nc2nccc(-c3ccc(OC4CCN(C(=O)[C@@H](C)CO)CC4(F)F)c(C#N)c3)n2)ccc1N1CCN(C2COC2)CC1` (stereo partly drawn) [Example 252, 2-[3,3-Difluoro-1-((S)-3-hydroxy-2-methyl-propionyl)-piperidin-4-yloxy]-5-{2-[6-methoxy-5-(4-oxetan-3-yl-piperazin-1-yl)-pyridin-2-ylamino]-pyrimidin-4-yl}-benzonitrile], the IC50 in assay [1] and in assay [2] was < 0.1 µM throughout.
With `C[C@@H](O)C(=O)N1CCC(Oc2ccc(-c3ccnc(Nc4ccc(N5CCN(C6COC6)CC5)cc4)n3)cc2C#N)C(F)(F)C1` (stereo partly drawn) [Example 141, 2-([3,3-difluoro-1-[(2R)-2-hydroxypropanoyl]piperidin-4-yl]oxy)-5-[2-([4-[4-(oxetan-3-yl)piperazin-1-yl]phenyl]amino)pyrimidin-4-yl]benzonitrile], the IC50 in assay [1] and in assay [2] was < 0.1 µM each time.
In the case of `COc1nc(Nc2nccc(-c3ccc(OC4CCN(C(=O)[C@@H](C)O)CC4(F)F)c(C#N)c3)n2)ccc1N1CCN(C)C[C@@H]1C` (stereo partly drawn) [Example 111, 2-[3,3-Difluoro-1-((R)-2-hydroxy-propionyl)-piperidin-4-yloxy]-5-{2-[5-((S)-2,4-dimethyl-piperazin-1-yl)-6-methoxy-pyridin-2-ylamino]-pyrimidin-4-yl}-benzonitrile], the IC50 in assay [1] and in assay [2] was < 0.1 µM each time.
As for `COc1cc(N2CCN(C3COC3)CC2)ccc1Nc1nccc(-c2ccc(OC3CCN(C(=O)[C@H](C)O)CC3(F)F)c(C#N)c2)n1` (stereo partly drawn) [Example 228, 2-([33-difluoro-1-[(2S)-2-hydroxypropanoyl]piperidin-4-yl]oxy)-5-[2-([2-methoxy-4-[4-(oxetan-3-yl)piperazin-1-yl]phenyl]amino)pyrimidin-4-yl]benzonitrile], the IC50 in assay [1] and in assay [2] was < 0.1 µM in each case.
In the case of `COc1cc(Nc2nccc(-c3ccc(OC4CCN(C(=O)[C@@H](C)O)CC4(F)F)c(C#N)c3)n2)ccc1C1CCN(C2COC2)CC1` (stereo partly drawn) [Example 227, 2-([3,3-difluoro-1-[(2R)-2-hydroxypropanoyl]piperidin-4-yl]oxy)-5-[2-([3-methoxy-4-[1-(oxetan-3-yl)piperidin-4-yl]phenyl]amino)pyrimidin-4-yl]benzonitrile], the IC50 in assay [1] and in assay [2] was < 0.1 µM throughout.
Consider `C[C@@H](O)C(=O)N1CCC(Oc2ccc(-c3ccnc(Nc4cccnc4)n3)cc2C#N)C(F)(F)C1` (stereo partly drawn) [Example 206, 2-([33-difluoro-1-[(2R)-2-hydroxypropanoyl]piperidin-4-yl]oxy)-5-[2-[(pyridin-3-yl)amino]pyrimidin-4-yl]benzonitrile], for which the IC50 in assay [1] and in assay [2] was < 0.1 µM throughout.

(Values after patent publication US20230019491A1, “PYRIMIDINE TBK/IKKe INHIBITOR COMPOUNDS AND USES THEREOF” (Merck Patent GmbH, priority 2017, published 2023).)
